Experimental data taken from article PMC2658056 (The Journal of Biological Chemistry, 2009).
Residue numbers refer to the chain shown, from its start. In brackets after ≈: the same amount, converted by molar mass.

Key:
[1] = target: T1, W54A/C89A/C186A mutant of mouse L-PGDS (Mus musculus, UniProt O09114, C186A/C89A/W54A); assay: Intrinsic tryptophan fluorescence quenching assay, W54A/C89A/C186A mutant; format: binding
T1 sequence (O09114 23-189 W54A/C89A/C186A): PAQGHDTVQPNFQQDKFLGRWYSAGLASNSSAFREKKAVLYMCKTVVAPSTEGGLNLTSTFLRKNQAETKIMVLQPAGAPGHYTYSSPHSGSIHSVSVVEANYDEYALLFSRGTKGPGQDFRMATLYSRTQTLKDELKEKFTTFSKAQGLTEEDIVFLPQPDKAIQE

[2] = target: T2, C89A/C186A mutant of mouse L-PGDS (Mus musculus, UniProt O09114, C186A/C89A); assay: Intrinsic tryptophan fluorescence quenching assay, C89A/C186A mutant; format: binding
T2 sequence (O09114 23-189 C89A/C186A): T1 sequence (O09114 23-189 W54A/C89A/C186A) with A32W

COX-2 = target: T3, COX-2 (Homo sapiens, UniProt P35354); assay: COX-2 enzyme activity assay; format: biochemical; settings: AT-56 up to 250 μM
T3 sequence (P35354 18-604): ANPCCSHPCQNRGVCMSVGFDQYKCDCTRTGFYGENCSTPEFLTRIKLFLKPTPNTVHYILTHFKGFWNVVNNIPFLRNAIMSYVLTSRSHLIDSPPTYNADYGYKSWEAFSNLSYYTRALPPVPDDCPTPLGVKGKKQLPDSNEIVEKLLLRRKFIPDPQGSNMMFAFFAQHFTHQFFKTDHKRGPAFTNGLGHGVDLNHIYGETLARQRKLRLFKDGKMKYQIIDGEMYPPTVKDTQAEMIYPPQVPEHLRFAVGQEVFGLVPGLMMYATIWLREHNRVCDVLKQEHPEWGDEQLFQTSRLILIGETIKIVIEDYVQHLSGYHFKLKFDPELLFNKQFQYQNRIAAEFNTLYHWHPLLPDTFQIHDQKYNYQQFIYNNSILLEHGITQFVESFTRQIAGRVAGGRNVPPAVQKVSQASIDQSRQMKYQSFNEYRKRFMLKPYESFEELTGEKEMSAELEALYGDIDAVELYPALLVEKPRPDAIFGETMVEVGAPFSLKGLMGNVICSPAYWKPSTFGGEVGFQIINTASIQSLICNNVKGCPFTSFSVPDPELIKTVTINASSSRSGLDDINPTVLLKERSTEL

brain of H-PGDS KO mice = assay: PG production by stab wound brain injury
[3] = tested on: L-PGDS-expressing human medulloblastoma TE-671 cells; assay: PG production by A23187-stimulated TE-671 cells; format: cell-based
H-PGDS = H-PGDS (Homo sapiens, UniProt O60760); assay: H-PGDS enzyme activity assay; format: biochemical; settings: AT-56 up to 250 μM
[4] = Maximum solubility in aqueous solution; format: physicochemical
[5] = Acute toxicity after oral administration; format: in vivo; settings: dose of 100 mg/kg
[6] = tested on: H-PGDS-expressing human megakaryoblastic MEG-01S cells; assay: PGD2 production by A23187-stimulated MEG-01S cells; format: cell-based
m-PGES-1 = target: T4, m-PGES-1 (Homo sapiens, UniProt O14684); assay: m-PGES-1 enzyme activity assay; format: biochemical; settings: AT-56 up to 250 μM
T4 sequence (O14684 1-152): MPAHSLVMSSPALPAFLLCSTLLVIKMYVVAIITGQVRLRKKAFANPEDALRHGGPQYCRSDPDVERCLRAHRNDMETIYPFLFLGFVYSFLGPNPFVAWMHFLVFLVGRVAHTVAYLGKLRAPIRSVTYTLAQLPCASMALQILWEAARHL

[7] = target: T5, recombinant mouse L-PGDS C89A/C186A mutant (Mus musculus, UniProt O09114, C186A/C89A); assay: biochemical
T5 sequence (O09114 23-189 C89A/C186A): T1 sequence (O09114 23-189 W54A/C89A/C186A) with A32W

[8] = Pharmacokinetics of AT-56 in plasma; format: in vivo, C57BL/6 mice; settings: male, C57BL/6, mouse; for Tmax: mice
human L-PGDS TG mice = assay: L-PGDS-mediated allergic airway inflammation; format: in vivo
COX-1 = COX-1 (Homo sapiens, UniProt P23219); assay: COX-1 enzyme activity assay; format: biochemical; settings: AT-56 up to 250 μM
[9] = 0 to 30 μM AT-56, 5 μM A23187, enzyme immunoassay

Chain of COX-1 (P23219 24-599): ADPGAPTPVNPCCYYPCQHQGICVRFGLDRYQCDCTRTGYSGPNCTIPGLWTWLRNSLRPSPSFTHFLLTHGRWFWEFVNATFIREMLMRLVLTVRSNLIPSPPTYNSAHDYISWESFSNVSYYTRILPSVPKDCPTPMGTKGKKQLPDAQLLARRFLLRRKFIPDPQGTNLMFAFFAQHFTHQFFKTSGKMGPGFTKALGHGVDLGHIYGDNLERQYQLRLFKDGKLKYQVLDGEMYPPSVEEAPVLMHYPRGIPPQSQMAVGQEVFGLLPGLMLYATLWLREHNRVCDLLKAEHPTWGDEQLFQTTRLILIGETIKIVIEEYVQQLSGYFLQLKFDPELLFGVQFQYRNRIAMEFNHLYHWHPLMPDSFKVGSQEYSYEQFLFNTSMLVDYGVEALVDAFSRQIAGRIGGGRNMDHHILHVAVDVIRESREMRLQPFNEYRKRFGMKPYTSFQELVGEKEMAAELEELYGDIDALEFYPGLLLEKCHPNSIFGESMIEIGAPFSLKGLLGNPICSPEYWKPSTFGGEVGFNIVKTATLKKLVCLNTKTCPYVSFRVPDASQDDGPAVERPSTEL
Chain of H-PGDS (O60760 whole entry, species assumed): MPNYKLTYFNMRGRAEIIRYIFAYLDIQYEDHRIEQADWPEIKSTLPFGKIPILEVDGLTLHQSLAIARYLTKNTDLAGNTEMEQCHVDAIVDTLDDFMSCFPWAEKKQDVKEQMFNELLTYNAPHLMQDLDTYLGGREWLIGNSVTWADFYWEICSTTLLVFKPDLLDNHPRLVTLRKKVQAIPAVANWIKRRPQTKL

CC1=C(/C=C/C(C)=C/C=C/C(C)=C\C(=O)O)C(C)(C)CCC1 [13-cis-retinoic acid, reference compound]
tryptophan fluorescence intensity decreased to ([1]; 10 μM 13-cis-retinoic acid): < 10%
tryptophan fluorescence intensity decreased to ([2]; 10 μM 13-cis-retinoic acid, absence of AT-56): about 8%
tryptophan fluorescence intensity decreased to ([2]; 10 μM 13-cis-retinoic acid, in the presence of 10 μM AT-56): < 10%

C1=Cc2ccccc2C(=C2CCN(CCCCc3nn[nH]n3)CC2)c2ccccc21 [AT-56, 4-dibenzo[a,d]cyclohepten-5-ylidene-1-[4-(2H-tetrazol-5-yl)-butyl]-piperidine]
effect on COX-2 activity (COX-2): not significantly affected
total amount of PGD2 in the brain decreased to (brain of H-PGDS KO mice; 30 mg/kg AT-56 orally 1 h before the injury): 40%
amount of PGE2 in the brain (brain of H-PGDS KO mice; AT-56 orally 1–30 mg/kg): not significantly changed
amount of PGF2α in the brain (brain of H-PGDS KO mice; AT-56 orally 1–30 mg/kg): not significantly changed
effect on PGE2 production [3, 9]: without affecting
effect on PGF2α production [3, 9]: without affecting
PGD2 biosynthesis ([3]; 10 μM AT-56, A23187): only a base level
arachidonic acid release ([3]; 10 μM AT-56, A23187): without changing
IC50 ([3]; Homo sapiens, TE-671, read-out: IC50, PGD2 production): ~3 µM
production of other 14C-labeled metabolites ([3]; [1-14C]arachidonic acid-prelabeled cells, AT-56 up to 100 μM): not inhibited
effect on H-PGDS activity (H-PGDS): not significantly affected
solubility ([4]; 10% DMSO): 260 µM (≈ 103 µg/mL)
solubility ([4]; saline containing 1% DMSO): 90 µM (≈ 35.8 µg/mL)
acute toxic effects [5]: did not detect any acute toxic effects
fluorescence quenching ([1]; 10 μM AT-56): did not show the fluorescence quenching
effect on PGD2 production [6]: no effect
effect on m-PGES-1 activity (m-PGES-1): not significantly affected
IC50 [7]: 95 µM
Ki [7]: 75 µM
effect on binding of 13-cis-retinoic acid to L-PGDS ([2]; 10 μM AT-56): did not inhibit the binding
tryptophan fluorescence intensity decreased to ([2]; 10 μM AT-56): about 60%
AUC ([8]; iv, 2 mg/kg): 1280 ng·h/mL
C0 ([8]; iv, 2 mg/kg): 860 ng/mL
half-life ([8]; iv, 2 mg/kg): 2.35 h
Tmax ([8]; iv, 2 mg/kg): 0.08 h
AUC ([8]; po, 10 mg/kg): 8950 ng·h/mL
Cmax ([8]; po, 10 mg/kg): 2150 ng/mL
bioavailability ([8]; po, 10 mg/kg): 82%
concentration at 12 h ([8]; po, 10 mg/kg): < 0.4 ng/mL
half-life ([8]; po, 10 mg/kg): 1.71 h
Tmax ([8]; po, 10 mg/kg, per os): 0.5 h
total cells in BALF, actual number (human L-PGDS TG mice; 1 mg/kg AT-56 p.o.): 8.7 ± 1.9 × 10^4 cells/ml
total cells in BALF, actual number (human L-PGDS TG mice; 10 mg/kg AT-56 p.o.): 2.7 ± 0.4 × 10^4 cells/ml
effect on COX-1 activity (COX-1): not significantly affected

c1ccc(C(OC2CCN(CCCc3nnn[nH]3)CC2)c2ccccc2)cc1 [HQL-79, 4-benzhydryloxy-1-(3-(1H-tetrazol-5-yl)-propyl)-piperidine, reference compound]
effect on PGD2 production ([3]; TE-671 cells): but not from TE-671 cells
effect on PGD2 production [6]: inhibited PGD2 production
